# Measured values as given in ChEMBL document CHEMBL1131885, “Acyclic structural variants of growth hormone secretagogue L-692,429” (1999).
# Calls of active or inactive are those of the source. The rule behind the calls is not given here.
# Species on record: Rattus norvegicus
# Assay: In vitro growth hormone release in rat pituitary cells assay was determined
# Assay type: functional
# Conditions: Pituitary gland cell, read-out: ED50 (the source's name)
row,Structure (SMILES),EC50
1,CCN(Cc1ccc(-c2ccccc2-c2nn[nH]n2)cc1)C(=O)[C@@H](CCc1ccccc1)NC(=O)C(C)(C)N,> 500 nM
2,CC(C)(N)CC(=O)N[C@@H]1CCc2ccccc2N(Cc2ccc(-c3ccccc3-c3nn[nH]n3)cc2)C1=O,60 nM
3,CC(C)(N)CC(=O)N[C@H](Cc1c[nH]c2ccccc12)C(=O)NCc1ccc(-c2ccccc2-c2nn[nH]n2)cc1,400 nM
4,CN(Cc1ccc(-c2ccccc2-c2nn[nH]n2)cc1)C(=O)[C@@H](CCc1ccccc1)NC(=O)CCC(C)(C)N,> 300 nM
5,CC(C)(N)CC(=O)N[C@H](COCc1ccccc1)C(=O)NCc1ccc(-c2ccccc2-c2nn[nH]n2)cc1,> 1000 nM
6,CN(Cc1ccc(-c2ccccc2-c2nn[nH]n2)cc1)C(=O)[C@@H](CCc1ccccc1)NC(=O)CC(C)(C)N,> 300 nM
7,CC(C)N(Cc1ccc(-c2ccccc2-c2nn[nH]n2)cc1)C(=O)[C@@H](CCc1ccccc1)NC(=O)C(C)(C)N,> 500 nM
8,CN(C(=O)[C@@H](CCc1ccccc1)NC(=O)C(C)(C)N)c1ccc(-c2ccccc2-c2nn[nH]n2)cc1,300 nM
9,CC(C)(N)CC(=O)N[C@H](CCc1ccccc1)C(=O)NCc1ccc(-c2ccccc2-c2nn[nH]n2)cc1,200 nM
10,CC[C@@H](NC(=O)CC(C)(C)N)C(=O)N(Cc1ccc(-c2ccccc2-c2nn[nH]n2)cc1)c1ccccc1,11000 nM
11,CN(Cc1ccc(-c2ccccc2-c2nn[nH]n2)cc1)C(=O)[C@@H](CCc1ccccc1)NC(=O)C(C)(C)N,30 nM
12,CC(C)(N)CC(=O)N[C@H](Cc1ccccc1)C(=O)NCc1ccc(-c2ccccc2-c2nn[nH]n2)cc1,11000 nM

# Species on record: Rattus norvegicus
# Assay: In vitro growth hormone release in rat pituitary cells assay was determined; IA means inactive
# Assay type: functional, cell-based
# Conditions: Pituitary gland cell
row,Structure (SMILES),ED50
1,CC(C)(N)CC(=O)NCC(=O)NCc1ccc(-c2ccccc2-c2nn[nH]n2)cc1,inactive
2,C[C@@H](NC(=O)CC(C)(C)N)C(=O)NCc1ccc(-c2ccccc2-c2nn[nH]n2)cc1,inactive
